# Assay results from the supplement of paper PMC10307832.
# Columns and labels:
# Assay in all cases: relative viability (nuclei count vs DMSO), 5 days (fraction); higher = more cells survive
# [1] = test system: HCC-827
# How it was run: (§1)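 Values are medians from duplicate plates. Each reflects relative viability, defined as the nuclei count of treated wells over that of vehicle wells. Lung cancer cell lines in 1536-well plates were pin-tool dosed one day after seeding with one drug alone or with a fixed anchor-drug dose plus five library-drug doses (not always all listed) in √10 steps, then fixed, stained and imaged at 4× after 5 days.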
# [2] = test system: EPLC-272H
# How it was run: as §1
# [3] = test system: 201T
# How it was run: as §1
# [4] = test system: PC-14
# How it was run: as §1
# [5] = test system: NCI-H647
# How it was run: as §1
# [6] = test system: COR-L 105
# How it was run: as §1
# [7] = test system: LC-2-ad
# How it was run: as §1
# [8] = test system: NCI-H2405
# How it was run: as §1
# [9] = test system: NCI-H661
# How it was run: as §1
# [10] = test system: LCLC-97TM1
# How it was run: as §1
# [11] = test system: ChaGo-K-1
# How it was run: as §1
# [12] = test system: NCI-H1666
# How it was run: as §1
# [13] = test system: HCC-78
# How it was run: as §1
# [14] = test system: NCI-H2126
# How it was run: as §1
# [15] = test system: RERF-LC-KJ
# How it was run: as §1
# [16] = test system: NCI-H23
# How it was run: as §1
# [17] = test system: NCI-H650
# How it was run: as §1
# [18] = test system: NCI-H1915
# How it was run: as §1
# [19] = test system: NCI-H2347
# How it was run: as §1
# [20] = test system: NCI-H2087
# How it was run: as §1
# [21] = test system: H3255
# How it was run: as §1
# [22] = test system: NCI-H520
# How it was run: as §1
smiles,measurement,setting,value
Cc1sc2c(c1C)C(c1ccc(Cl)cc1)=N[C@@H](CC(=O)OC(C)(C)C)c1nnc(C)n1-2 [JQ1] + COc1cccc2cc(-c3nc([C@H]4CC[C@H](C(=O)O)CC4)n4ncnc(N)c34)[nH]c12 [OSI-027] (partner 0.5 µM),relative viability,[1]; first compound 0.04 µM,0.704
same,relative viability,[1]; first compound 0.4 µM,0.532
same,relative viability,[1]; first compound 1.265 µM,0.866
same,relative viability,[1]; first compound 4 µM,0.738
same,relative viability,[2]; first compound 0.04 µM,0.26
same,relative viability,[2]; first compound 0.1265 µM,0.336
same,relative viability,[2]; first compound 0.4 µM,0.275
same,relative viability,[2]; first compound 1.265 µM,0.237
same,relative viability,[2]; first compound 4 µM,0.248
same,relative viability,[3]; first compound 0.04 µM,0.761
same,relative viability,[3]; first compound 0.1265 µM,0.596
same,relative viability,[3]; first compound 0.4 µM,0.688
same,relative viability,[3]; first compound 1.265 µM,0.238
same,relative viability,[3]; first compound 4 µM,0.201
same,relative viability,[4]; first compound 0.04 µM,0.713
same,relative viability,[4]; first compound 0.1265 µM,0.638
same,relative viability,[4]; first compound 0.4 µM,0.514
same,relative viability,[4]; first compound 1.265 µM,0.311
same,relative viability,[4]; first compound 4 µM,0.343
same,relative viability,[5]; first compound 0.04 µM,0.567
same,relative viability,[5]; first compound 0.1265 µM,0.469
same,relative viability,[5]; first compound 0.4 µM,0.388
same,relative viability,[5]; first compound 1.265 µM,0.293
same,relative viability,[5]; first compound 4 µM,0.174
same,relative viability,[6]; first compound 0.04 µM,0.608
same,relative viability,[6]; first compound 0.1265 µM,0.336
same,relative viability,[6]; first compound 0.4 µM,0.297
same,relative viability,[6]; first compound 1.265 µM,0.207
same,relative viability,[6]; first compound 4 µM,0.248
same,relative viability,[7]; first compound 0.04 µM,0.77
same,relative viability,[7]; first compound 0.1265 µM,0.543
same,relative viability,[7]; first compound 0.4 µM,0.62
same,relative viability,[7]; first compound 1.265 µM,0.366
same,relative viability,[7]; first compound 4 µM,0.302
same,relative viability,[8]; first compound 0.04 µM,0.651
same,relative viability,[8]; first compound 0.1265 µM,0.632
same,relative viability,[8]; first compound 0.4 µM,0.696
same,relative viability,[8]; first compound 1.265 µM,0.58
same,relative viability,[8]; first compound 4 µM,0.582
same,relative viability,[9]; first compound 0.04 µM,0.714
same,relative viability,[9]; first compound 0.1265 µM,0.517
same,relative viability,[9]; first compound 0.4 µM,0.603
same,relative viability,[9]; first compound 1.265 µM,0.423
same,relative viability,[9]; first compound 4 µM,0.453
same,relative viability,[10]; first compound 0.04 µM,0.476
same,relative viability,[10]; first compound 0.1265 µM,0.674
same,relative viability,[10]; first compound 0.4 µM,0.594
same,relative viability,[10]; first compound 1.265 µM,0.4
same,relative viability,[10]; first compound 4 µM,0.199
same,relative viability,[11]; first compound 0.04 µM,0.564
same,relative viability,[11]; first compound 0.1265 µM,0.519
same,relative viability,[11]; first compound 0.4 µM,0.472
same,relative viability,[11]; first compound 1.265 µM,0.345
same,relative viability,[11]; first compound 4 µM,0.28
same,relative viability,[12]; first compound 0.04 µM,0.761
same,relative viability,[12]; first compound 0.1265 µM,0.901
same,relative viability,[12]; first compound 0.4 µM,0.726
same,relative viability,[12]; first compound 1.265 µM,0.581
same,relative viability,[12]; first compound 4 µM,0.789
same,relative viability,[13]; first compound 0.04 µM,0.389
same,relative viability,[13]; first compound 0.1265 µM,0.47
same,relative viability,[13]; first compound 0.4 µM,0.387
same,relative viability,[13]; first compound 1.265 µM,0.335
same,relative viability,[13]; first compound 4 µM,0.296
same,relative viability,[14]; first compound 0.04 µM,0.712
same,relative viability,[14]; first compound 0.1265 µM,0.72
same,relative viability,[14]; first compound 0.4 µM,0.739
same,relative viability,[14]; first compound 1.265 µM,0.552
same,relative viability,[14]; first compound 4 µM,0.431
same,relative viability,[15]; first compound 0.04 µM,0.634
same,relative viability,[15]; first compound 0.1265 µM,0.518
same,relative viability,[15]; first compound 0.4 µM,0.531
same,relative viability,[15]; first compound 1.265 µM,0.335
same,relative viability,[15]; first compound 4 µM,0.338
same,relative viability,[16]; first compound 0.04 µM,0.586
same,relative viability,[16]; first compound 0.1265 µM,0.583
same,relative viability,[16]; first compound 0.4 µM,0.394
same,relative viability,[16]; first compound 1.265 µM,0.198
same,relative viability,[16]; first compound 4 µM,0.204
same,relative viability,[17]; first compound 0.04 µM,0.584
same,relative viability,[17]; first compound 0.1265 µM,0.41
same,relative viability,[17]; first compound 0.4 µM,0.415
same,relative viability,[17]; first compound 1.265 µM,0.25
same,relative viability,[17]; first compound 4 µM,0.192
same,relative viability,[18]; first compound 0.04 µM,0.609
same,relative viability,[18]; first compound 0.1265 µM,0.602
same,relative viability,[18]; first compound 0.4 µM,0.59
same,relative viability,[18]; first compound 1.265 µM,0.263
same,relative viability,[18]; first compound 4 µM,0.217
same,relative viability,[19]; first compound 0.04 µM,0.328
same,relative viability,[19]; first compound 0.1265 µM,0.536
same,relative viability,[19]; first compound 0.4 µM,0.305
same,relative viability,[19]; first compound 1.265 µM,0.346
same,relative viability,[19]; first compound 4 µM,0.31
same,relative viability,[20]; first compound 0.04 µM,0.586
same,relative viability,[20]; first compound 0.1265 µM,0.643
same,relative viability,[20]; first compound 0.4 µM,0.699
same,relative viability,[20]; first compound 1.265 µM,0.302
same,relative viability,[20]; first compound 4 µM,0.301
same,relative viability,[21]; first compound 0.04 µM,0.532
same,relative viability,[21]; first compound 0.1265 µM,0.672
same,relative viability,[21]; first compound 0.4 µM,0.629
same,relative viability,[21]; first compound 1.265 µM,0.438
same,relative viability,[21]; first compound 4 µM,0.444
same,relative viability,[22]; first compound 0.04 µM,0.211
same,relative viability,[22]; first compound 0.1265 µM,0.325
same,relative viability,[22]; first compound 0.4 µM,0.201
same,relative viability,[22]; first compound 1.265 µM,0.217
same,relative viability,[22]; first compound 4 µM,0.208
